≈ marks a conversion by molar mass, not a printed value. Like-named read-outs stand apart in the source and are kept apart here.
Tests used:
[1] = test system: delayed-type hypersensitivity (DTH); assay: Suppressive effect on delayed-type hypersensitivity (DTH) in mouse, oral; assay type: in vivo, mouse (CDF1); conditions: oral once a day, 0~4th day
Description: CDF1 mice were immunized by intravenously injecting sheep red blood cells (10^5 cells/mouse). On the 4th day after the immunization, sheep red blood cells (10^8 cells/mouse) were subcutaneously injected into the footpad of mice for the elicitation to cause a delayed-type hypersensitivity. Test compound was orally administered to the mice once a day from the 0 th day to the 4 th day after the immunization. On the 5th day after the elicitation, the thickness of the mouse footpad was measured to estimate the suppressive effect of the test compound on DTH. The suppressive effect of the test compound was evaluated in terms of the inhibition rate (%) as calculated according to the following equation:
Inhibition rate (%)=100-(T/C×100)
wherein T denotes the thickness of the footpad when the test compound was administered, but C denotes the thickness of the footpad when no test compounnd was administered.

[2] = test system: Candida tropicalis F-1; assay: MIC, agar plate dilution method; assay type: cell-based; conditions: F1, 27° C., 42 hours, nutrient agar containing glucose
[3] = test system: Piricularia oryzae; assay: microbe, parasite or virus in culture; assay type: cell-based; conditions: 42 h
[4] = test system: nylon wool-passed cells of spleen cells (responder cell; T cells); assay: Inhibitory activity to the mixed lymphocyte culture reaction; assay type: cell-based, rat (Fischer F344 responder; WKY stimulator); conditions: for inhibition at 1.56 µg/mL / inhibition at 0.1 µg/mL / inhibition at 0.39 µg/mL / inhibition at 6.25 µg/mL / inhibition at 25 µg/mL / inhibition at 100 µg/mL / IC50: Rattus norvegicus, T-cell; for inhibition at 1.56 µg/mL / inhibition at 0.1 µg/mL / inhibition at 0.39 µg/mL / inhibition at 6.25 µg/mL / inhibition at 25 µg/mL / inhibition at 100 µg/mL: read-out: Inhibition rate; for inhibition at 0.1 µg/mL: 0.10 μg/ml test compound; for inhibition at 0.39 µg/mL: 0.39 μg/ml test compound; for inhibition at 6.25 µg/mL: 6.25 μg/ml test compound; for inhibition at 25 µg/mL: 25 μg/ml test compound; for inhibition at 100 µg/mL: 100 μg/ml test compound; for IC50: 120 hours, 3H-thymidine incorporation, read-out: IC50 (inhibition of mixed lymphocyte culture reaction); for activity to inhibit the proliferation of the T cells (responder cell) in mixed lymphocyte culture reaction: in vitro, result in words
[5] = test system: Trichophyton asteroides 429; assay: MIC, agar plate dilution method; assay type: cell-based; conditions: 27° C., 42 hours, nutrient agar containing glucose
[6] = test system: Pellicularia sasakii; assay: MIC, agar plate dilution method; assay type: cell-based; conditions: 27° C., 42 hours, nutrient agar containing glucose
[7] = test system: Aspergillus niger F-16; assay: MIC, agar plate dilution method; assay type: cell-based; conditions: F16, 27° C., 42 hours, nutrient agar containing glucose
[8] = test system: Candida pseudotropicalis F-2; assay: MIC, agar plate dilution method; assay type: cell-based; conditions: Kluyveromyces marxianus, F2; 27° C., 42 hours, nutrient agar containing glucose
[9] = test system: Human Lymphoma Jurkat; assay: Inhibitory activity on proliferation of cancer cells; assay type: cell-based
[10] = Absorption into the digestive tracts on oral administration; conditions: result in words
[11] = test system: Saccharomyces cerevisiae F-7; assay: MIC, agar plate dilution method; assay type: cell-based; conditions: F7, 27° C., 42 hours, nutrient agar containing glucose
[12] = Solubility; conditions: result in words; for Solubility: various solvents
[13] = test system: Candida albicans 3147; assay: MIC, agar plate dilution method; assay type: cell-based; conditions: 27° C., 42 hours, nutrient agar containing glucose
[14] = test system: spleen cells (T cells activated by Concanavalin A); assay: Inhibitory activity against blastogenesis and proliferation of spleen cells caused by mitogen (Con A); assay type: cell-based, mouse (CDF1); conditions: for IC50: read-out: IC50 (inhibition of blastogenesis and proliferation of spleen lymphocyte caused by Con A); for inhibition at 0.39 µg/mL: 0.39 μg/ml test compound; for inhibition at 6.25 µg/mL: 6.25 μg/ml test compound; for inhibition at 25 µg/mL: 25 μg/ml test compound; for inhibition at 100 µg/mL: 100 μg/ml test compound; for activity inhibitory to the reaction of proliferation of mouse spleen cells activated with Concanavalin A: in vitro, result in words; for inhibition at 1.56 µg/mL: 1.56 μg/ml test compound
[15] = test system: Trichophyton mentagrophytes F-15 (833); assay: MIC, agar plate dilution method; assay type: cell-based; conditions: 27° C., 42 hours, nutrient agar containing glucose
[16] = test system: Candida Yu-1200; assay: MIC, agar plate dilution method; assay type: cell-based; conditions: YU1200, 27° C., 42 hours, nutrient agar containing glucose
[17] = test system: Mouse leukemia EL-4; assay: Inhibitory activity on proliferation of cancer cells; assay type: cell-based; conditions: EL4
[18] = test system: Mouse leukemia P388D1; assay: as above; assay type: cell-based
[19] = test system: Cochliobolus miyabeanus; assay: MIC, agar plate dilution method; assay type: cell-based; conditions: Bipolaris oryzae; 27° C., 42 hours, nutrient agar containing glucose
Description: (§1) Delaminomycins A, B, C, A2, B2 and C2 according to this invention further have an antibacterial activity against a variety of bacteria. The minimum growth inhibitory concentrations (MIC) (μg/ml) of the novel antibiotics of this invention on various bacteria and fungi as measured by the agar plate dilution method are shown in Table 5a, Table 5b, Table 5c and Table 5d below.
(§2) Evaluated after culturing at 27° C. for 42 hours in nutrient agar
(§3) medium containing glucose.

[20] = test system: Xanthomonas citri; assay: MIC, agar plate dilution method; assay type: cell-based; conditions: 27° C., 42 hours, nutrient agar containing glucose
Description: as §1, §2, §3

[21] = test system: Mouse leukemia L-1210; assay: Inhibitory activity on proliferation of cancer cells; assay type: cell-based; conditions: L1210
[22] = test system: Mouse melanoma B-16; assay: as above; assay type: cell-based; conditions: B16
[23] = test system: Candida krusei F-5; assay: MIC, agar plate dilution method; assay type: cell-based; conditions: Pichia kudriavzevii, F5; 27° C., 42 hours, nutrient agar containing glucose
[24] = test system: Gram-positive bacteria; assay: Antibacterial activity to Gram-positive bacteria; assay type: cell-based; conditions: result in words
Source text: as §1

[25] = Mus musculus, T-cell, read-out: Inhibition rate

## CCC(OS(=O)(=O)O)C(C)/C=C/C=C/C1CC2C=CC3CC(C)CC(C)C3C2(C)C(=O)C12C(=O)NC(OC)C2=O (stereo not drawn)
[1]; 2.0 mg/mouse
  Inhibition rate (DTH footpad thickness): 40.2%

## CCC(OS(=O)(=O)O)C(C)/C=C/C=C/C1CC2C=CC3CC(C)CC(C)C3C2(C)C(=O)C12C(=O)CNC2=O (stereo not drawn)
[1]; 2.0 mg/mouse
  Inhibition rate (DTH footpad thickness): 35.4%

## CCC(O)C(C)/C=C/C=C/C(O)CC1C=CC2CC(C)CC(C)C2C1(C)C(=O)C1C(=O)NC(OC)C1=O (stereo not drawn) [Delaminomycin B]
[2]
  MIC: > 100 µg/mL
[3]
  MIC: > 100 µg/mL
[4]
  inhibition at 1.56 µg/mL: 58.4%
  inhibition at 0.1 µg/mL: 12.1%
  inhibition at 0.39 µg/mL: 27.9%
  inhibition at 6.25 µg/mL: 95.1%
  inhibition at 25 µg/mL: 95%
  inhibition at 100 µg/mL: 93.2%
  IC50: 1.1 µg/mL (≈ 2.13 µM)
  activity to inhibit the proliferation of the T cells (responder cell) in mixed lymphocyte culture reaction: have an activity to inhibit the reaction of proliferation of the T cells
[5]
  MIC: > 100 µg/mL
[6]
  MIC: > 50 µg/mL
[7]
  MIC: > 100 µg/mL
[8]
  MIC: > 100 µg/mL
[9]
  IC50: 8.2 µg/mL (≈ 15.9 µM)
[10]
  absorption into the digestive tracts / oral absorption: hardly absorbed into the digestive tracts
[11]
  MIC: > 100 µg/mL
[12]
  Solubility: soluble in methanol but slightly soluble or insoluble in water, acetone, ethyl ether and n-hexane
  Solubility in water: barely soluble in water
[13]
  MIC: > 100 µg/mL
[14]; Mus musculus, T-cell
  IC50: 4 µg/mL (≈ 7.76 µM)
[14]; [25]
  inhibition at 0.39 µg/mL: 0%
  inhibition at 6.25 µg/mL: 77%
  inhibition at 25 µg/mL: 69%
  inhibition at 100 µg/mL: 70%
[14]
  activity inhibitory to the reaction of proliferation of mouse spleen cells activated with Concanavalin A: exhibit an activity inhibitory to the reaction of proliferation of mouse spleen cells
[15]
  MIC: > 100 µg/mL
[16]
  MIC: > 100 µg/mL
[17]
  IC50: 11.1 µg/mL (≈ 21.5 µM)
[18]
  IC50: 13.3 µg/mL (≈ 25.8 µM)
[19]
  MIC: > 100 µg/mL
[20]
  MIC: > 100 µg/mL
[21]
  IC50: 30 µg/mL (≈ 58.2 µM)
[22]
  IC50: > 100 µg/mL
[23]
  MIC: > 100 µg/mL

## CCC(O)C(C)/C=C/C=C/C(O)CC1C=CC2CC(C)CC(C)C2C1(C)C(=O)C1C(=O)CNC1=O (stereo not drawn) [Delaminomycin C]
[2]
  MIC: > 100 µg/mL
[3]
  MIC: > 100 µg/mL
[4]
  inhibition at 0.1 µg/mL: 19.5%
  inhibition at 0.39 µg/mL: 41.6%
  inhibition at 6.25 µg/mL: 97.3%
  inhibition at 25 µg/mL: 97.6%
  inhibition at 100 µg/mL: 96.9%
  IC50: 0.5 µg/mL (≈ 1.03 µM)
  activity to inhibit the proliferation of the T cells (responder cell) in mixed lymphocyte culture reaction: have an activity to inhibit the reaction of proliferation of the T cells
[4]; 1.56 μg/ml test compound
  inhibition at 1.56 µg/mL: 89%
[5]
  MIC: > 100 µg/mL
[6]
  MIC: > 50 µg/mL
[7]
  MIC: > 100 µg/mL
[8]
  MIC: > 100 µg/mL
[9]
  IC50: 1.2 µg/mL (≈ 2.47 µM)
[10]
  absorption into the digestive tracts / oral absorption: hardly absorbed into the digestive tracts
[11]
  MIC: > 100 µg/mL
[12]
  Solubility: soluble in methanol but slightly soluble or insoluble in water, acetone, ethyl ether and n-hexane
  Solubility in water: barely soluble in water
[13]
  MIC: > 100 µg/mL
[14]; Mus musculus, T-cell
  IC50: 1 µg/mL (≈ 2.06 µM)
[14]; [25]
  inhibition at 0.39 µg/mL: 1%
  inhibition at 1.56 µg/mL: 75%
  inhibition at 6.25 µg/mL: 75%
  inhibition at 25 µg/mL: 76%
  inhibition at 100 µg/mL: 76%
[14]
  activity inhibitory to the reaction of proliferation of mouse spleen cells activated with Concanavalin A: exhibit an activity inhibitory to the reaction of proliferation of mouse spleen cells
[15]
  MIC: > 100 µg/mL
[16]
  MIC: > 100 µg/mL
[17]
  IC50: 1.9 µg/mL (≈ 3.91 µM)
[24]
  antibacterial activity to Gram-positive bacteria: antibacterial activity to Gram-positive bacteria
[18]
  IC50: 3.1 µg/mL (≈ 6.38 µM)
[19]
  MIC: > 100 µg/mL
[20]
  MIC: > 100 µg/mL
[21]
  IC50: 42 µg/mL (≈ 86.5 µM)
[22]
  IC50: 7.4 µg/mL (≈ 15.2 µM)
[23]
  MIC: > 100 µg/mL

## CCC(O)C(C)/C=C/C=C/C1CC2C=CC3CC(C)CC(C)C3C2(C)C(=O)C12C(=O)CNC2=O (stereo not drawn) [Delaminomycin C2]
[4]
  inhibition at 0.1 µg/mL: -7%
  inhibition at 0.39 µg/mL: -6%
  inhibition at 6.25 µg/mL: -1%
  inhibition at 25 µg/mL: 29%
  inhibition at 100 µg/mL: 99%
  IC50: 37.9 µg/mL (≈ 81 µM)
  activity to inhibit the proliferation of the T cells (responder cell) in mixed lymphocyte culture reaction: have an activity to inhibit the reaction of proliferation of the T cells
[4]; 1.56 μg/ml test compound
  inhibition at 1.56 µg/mL: 1%
[10]
  absorption into the digestive tracts / oral absorption: hardly absorbed into the digestive tracts
[12]
  Solubility: Soluble in methanol, ethyl acetate and chloroform but slightly soluble or insoluble in n-hexane and water
  Solubility in water: barely soluble in water
[14]; Mus musculus, T-cell
  IC50: 1.6 µg/mL (≈ 3.42 µM)
[14]; Mus musculus, T-cell, 0.1 μg/ml test compound, read-out: Inhibition rate
  inhibition at 0.1 µg/mL: 0%
[14]; [25]
  inhibition at 0.39 µg/mL: 0%
  inhibition at 1.56 µg/mL: 49%
  inhibition at 6.25 µg/mL: 84%
  inhibition at 25 µg/mL: 85%
  inhibition at 100 µg/mL: 93%
[14]
  activity inhibitory to the reaction of proliferation of mouse spleen cells activated with Concanavalin A: exhibit an activity inhibitory to the reaction of proliferation of mouse spleen cells
[24]
  antibacterial activity to Gram-positive bacteria: antibacterial activity to Gram-positive bacteria
[21]
  IC50: 3.6 µg/mL (≈ 7.7 µM)
[1]; 2.0 mg/mouse
  Inhibition rate (DTH footpad thickness): 25.7%

## CCC(OS(=O)(=O)O)C(C)/C=C/C=C/C1CC2C=CC3CC(C)CC(C)C3C2(C)C(=O)C12C(=O)NC(O)C2=O (stereo not drawn)
[1]; 0.5 mg/mouse
  Inhibition rate (DTH footpad thickness): -0.7%
[1]; 2.0 mg/mouse
  Inhibition rate (DTH footpad thickness): 56.3%
[1]; 8.0 mg/mouse
  Inhibition rate (DTH footpad thickness): 85.2%
